Data published in PMC6274026 (Molecules, 2016).
Values joined by “and” are separate entries in the source; they are usually repeats but may differ in a detail not shown here. Equal entries are not always repeated. Where two headings read alike, the source gives them in different places.

Experiments:
[1] = tested on: MCF-7; details: for Selectivity index: IC50 MCF-10A / IC50 MCF-7; for percentage of survival: 72 h; for Potency compared to control POD: MCF-7, relative to POD; for Potency compared to control VP-16: MCF-7, relative to VP-16; for IC50: read-out: Cytotoxic activity IC50, MCF-7, 72 h, mean of three independent experiments ± S.D.
[2] = tested on: MDA-MB-231; details: for Selectivity index: IC50 MCF-10A / IC50 MDA-MB-231; for percentage of survival: 72 h; for Potency compared to control POD: MDA-MB-231, relative to POD; for Potency compared to control VP-16: MDA-MB-231, relative to VP-16; for IC50: read-out: Cytotoxic activity IC50, MDA-MB-231, 72 h, mean of three independent experiments ± S.D.
[3] = tested on: BT-549; details: for percentage of survival: 72 h; for Potency compared to control POD: BT-549, relative to POD; for Potency compared to control VP-16: BT-549, relative to VP-16; for Selectivity index: IC50 MCF-10A / IC50 BT-549; for IC50: read-out: Cytotoxic activity IC50, BT-549, 72 h, mean of three independent experiments ± S.D.
[4] = tested on: MCF-10A; details: for percentage of survival: 0.08 µg/mL, 72 h; for Potency compared to control POD: relative to POD; for Potency compared to control VP-16: relative to VP-16
[5] = in vitro; details: human
[6] = tested on: MCF-7; test: Clonogenicity (recovery) assay, 72 h post-treatment, SRB; details: for percentage of recovery: 72 h post-treatment; for effect on proliferation and recovery after treatment: in words
[7] = tested on: MDA-MB-231; test: as above; details: for percentage of recovery: 72 h post-treatment; for effect on proliferation and recovery after treatment: in words
[8] = tested on: BT-549; test: as above; details: for percentage of recovery: 72 h post-treatment; for effect on proliferation and recovery after treatment: in words
[9] = tested on: MCF-10A; test: as above; details: for percentage of recovery: 0.08 µg/mL, 72 h post-treatment; for effect on proliferation and recovery after treatment: in words
[10] = Water solubility (observation in culture medium); assay type: physicochemical; details: in words
[11] = tested on: MCF-7, MDA-MB-231, BT-549, and MCF-10A; test: Cytotoxicity, clonogenicity and selectivity over the panel of breast cell lines; assay type: cell-based, human; details: in words, SI ≥ 10 selective
[12] = Cytotoxic activity IC50, MCF-10A, 72 h, mean of three independent experiments ± S.D.

Compound	Selectivity index [1]	percentage of survival ([1]; MCF-7, 0.08 µg/mL)	Potency compared to control POD [1]	Potency compared to control VP-16 [1]	IC50 [1]	Selectivity index [2]	percentage of survival ([2]; MDA-MB-231, 0.08 µg/mL)	percentage of survival ([2]; MDA-MB-231, 0.4 µg/mL)	Potency compared to control POD [2]	IC50 [2]	percentage of survival ([3]; BT-549, 0.08 µg/mL)	Selectivity index [3]	IC50 [3]	percentage of survival [4]	percentage of recovery ([6]; MCF-7, 0.08 µg/mL)	percentage of recovery ([7]; MDA-MB-231, 0.08 µg/mL)	percentage of recovery ([7]; MDA-MB-231, 0.4 µg/mL)	effect on proliferation and recovery after treatment ([7]; MDA-MB-231, 10 and 2 µg/mL)	percentage of recovery ([8]; BT-549, 0.08 µg/mL)	percentage of recovery ([9]; MCF-10A)	also measured
COc1ccc([C@@H]2c3cc4c(c(OC)c3C[C@H]3COC(=O)[C@@H]32)OCO4)cc1OC [Compound 1, 5′-demethoxy-β-peltatin-A-methylether]	0.02	130% ± 18.55%	0.002	0.017	7220 nM and 7200 nM	0.06	96% ± 6.9%	28% ± 3.1%	0.010	2440 nM and 2400 nM	82% ± 15.7%	0.11	1260 nM and 1200 nM and 1270 nM	61% ± 7.9%	172% ± 24.5%	184% ± 6.4%	49% ± 18.6%	inhibited proliferation and blocked recovery	124% ± 9.7%	83% ± 3.3%	Potency compared to control VP-16 [2]: 0.016; Potency compared to control POD [3]: 0.004; Potency compared to control VP-16 [3]: 0.126; IC50 ([4]; read-out: Cytotoxic activity IC50, 72 h, mean of three independent experiments ± S.D.): 137 ± 15 nM; Potency compared to control POD [4]: 0.144; Potency compared to control VP-16 [4]: 0.341; IC50 at 72 h [5, 12]: 130 nM; effect on proliferation and recovery after treatment ([6]; MCF-7, 10, 2, and 0.4 µg/mL): dose-dependent cytotoxic effect at concentrations of 10, 2, and 0.4 µg/mL, which persisted after removal of the treatment; effect on proliferation and recovery after treatment ([8]; BT-549, 10, 2, and 0.4 µg/mL): dose-dependent cytotoxic effect at concentrations of 10, 2, and 0.4 µg/mL, which persisted after removal of the treatment; effect on proliferation and recovery after treatment ([9]; MCF-10A, 10, 2, and 0.4 µg/mL): dose-dependent cytotoxic effect at concentrations of 10, 2, and 0.4 µg/mL, which persisted after removal of the treatment
COc1cc(C2=C3C(=O)OC[C@@H]3[C@@H](OC(C)=O)c3cc4c(cc32)OCO4)cc(OC)c1OC [Compound 4, 7′,8′-dehydroacetylpodophyllotoxin]	1.32	96% ± 13.5%	0.050	0.351	350 nM and 353 nM	2.90	93% ± 6.9%	57% ± 1.4%	0.151	160 nM and 161 nM	74% ± 7.4%	7.62		about 55% ± 17.2%	177% ± 15.6%	180% ± 13.5%	75% ± 12.2%	inhibitory effect on the survival and recovery	176% ± 18%	160% ± 21%	water solubility [10]: low water solubility; percentage of survival ([1]; MCF-7, 0.4 µg/mL): 21% ± 7.2%; percentage of survival ([1]; MCF-7, 2 µg/mL): 11% ± 7.6%; Potency compared to control VP-16 [2]: 0.242; percentage of survival ([3]; BT-549, 0.4 µg/mL): 48% ± 8.8%; Potency compared to control POD [3]: 0.086; Potency compared to control VP-16 [3]: 2.6 and 2.604; Potency compared to control POD [4]: 0.042; Potency compared to control VP-16 [4]: 0.100; IC50 at 72 h [5, 12]: 468 ± 2 nM; percentage of recovery ([6]; MCF-7, 0.4 µg/mL): 57% ± 14.5%; percentage of recovery ([6]; MCF-7, 2 µg/mL): 29% ± 0.7%; percentage of recovery ([8]; BT-549, 0.4 µg/mL): 98% ± 27.9%; effect on proliferation and recovery after treatment ([8]; BT-549, 10 and 2 µg/mL): inhibitory effect on the survival and recovery
COc1cc([C@@H]2c3cc4c(cc3[C@H](O)[C@H]3COC(=O)[C@H]23)OCO4)cc(OC)c1OC [POD, Podophyllotoxin, reference compound]	1.11				18 ± 1 nM	0.81				24 ± 6 nM			5 ± 1 nM								selectivity in the selectivity analysis [11]: non-selective activity; survival ([4]; even at high concentrations (10, 2, 0.4, 0.08, and 0.016 µg/mL)): about 20%; IC50 at 72 h [5]: 20 ± 8 nM; effect on proliferation and recovery after treatment ([6]; MCF-7, different POD concentrations): arrest of cell proliferation, which persisted even after the toxic agent was removed; effect on proliferation and recovery after treatment ([7]; MDA-MB-231, different POD concentrations): arrest of cell proliferation, which persisted even after the toxic agent was removed; effect on proliferation and recovery after treatment ([8]; BT-549, different POD concentrations): arrest of cell proliferation, which persisted even after the toxic agent was removed; effect on proliferation and recovery after treatment ([9]; MCF-10A, different POD concentrations): arrest of cell proliferation, which persisted even after the toxic agent was removed
COc1cc([C@@H]2c3cc4c(cc3[C@@H](O[C@@H]3O[C@@H]5CO[C@@H](C)O[C@H]5[C@H](O)[C@H]3O)[C@H]3COC(=O)[C@H]23)OCO4)cc(OC)c1O [VP-16, etoposide, reference compound]	0.38	71% ± 20.7%			124 ± 26 nM	1.20	82% ± 5.6%	48% ± 2.4%		38 ± 4 nM	67% ± 7.5%	0.29	160 ± 10 nM	46% ± 2.8%	183% ± 7.4%	160% ± 7.4%	98% ± 16.1%	caused inhibition of proliferation and cell recovery	101% ± 11.7%	79% ± 5.1%	selectivity in the selectivity analysis [11]: non-selective compound; IC50 at 72 h ([5]; MCF-10A cells, Cytotoxic activity IC50, MCF-10A, 72 h, mean of three independent experiments ± S.D.): 47 ± 9 nM; effect on proliferation and recovery after treatment ([6]; MCF-7, 10, 2, and 0.4 µg/mL): did not recover proliferation after treatment; effect on proliferation and recovery after treatment ([8]; BT-549, 10, 2, and 0.4 µg/mL): did not recover proliferation after treatment; effect on proliferation and recovery after treatment ([9]; MCF-10A, 10, 2, and 0.4 µg/mL): did not recover proliferation after treatment
